# Reference: patent USRE50172E1, “In vitro maturation of a mammalian cumulus oocyte complex” (Vrije Universiteit Brussel, priority 2014, dated 2024)
# Entries after “also recorded” stand apart in the source; their conditions may differ. No end group written: not given here.
# Experiments:
# Type in all cases: cell-based, mouse
# Preovulatory COCs [1] = assay: Meiotic resumption after 18 hours, CNP-53 dose range (Example 5)
# Description: The materials and methods used in this further example are accordingly in common with the materials and methods used in Example 4 but for the use of CNP-53 instead. Cumulus-oocyte complexes from 24-25 day-old mice were isolated from in vivo grown antral follicles post 48 h eCG stimulation. Mice were injected with 2.5 IU eCG when they were 22-23 days-old. Intact COCs were put in culture for a period of 18 hours in presence of the following doses of CNP-53: • Control (No CNP)* • 0.1 nM • 1 nM • 10 nM • 50 nM • 100 nM • 1 μM • Control 25 nM CNP-22*
# *Two control conditions were included: 1) 25 nM CNP-22 (standard dose known and used in previous experiments to maintain meiotic arrest), 2) a control condition where CNP is not present in the culture media.
# Differences in the rate of oocyte meiotic resumption (per meiotic stage) were assessed by ANOVA followed by a Tukey's Multiple Comparison Test, p<0.001. Percentages data were transformed (arcsine) before performing statistical analysis.
# [2] = system: cumulus-enclosed oocytes from early antral follicles; assay: Developmental competence after capacitation culture with CNP or Cilostamide, IVM and IVF (Example 3); conditions: 48 hours capacitation culture, IVM with EGF, IVF
# Description: Immature cumulus-oocyte complexes were isolated from early antral follicles (from unstimulated 19-20 day-old mice). COCs were placed in basal culture medium for a period of 48 hours in presence of either CNP or Cilostamide (PDE3-Inhibitor); similar to example 2.
# Following the capacitation culture, COCs were matured in presence of Epidermal growth factor (EGF) and in-vitro fertilized. Post fertilization embryo development was evaluated.
# Acquisition of oocyte competence under each condition was evaluated by their capacity to mature, fertilize (2-cell rate) and to produce good quality blastocyst (by day 5 of embryo culture).
# Differences in the rate of fertilization and blastocyst formation between CNP and Cilostamide groups were assessed by chi-square.
# Preovulatory COCs [3] = assay: Meiotic resumption after 18 hours, CNP-22 dose range (Example 4)
# Description: The materials and methods used in this further example are accordingly in common with the materials and methods used in Example 1. Cumulus-oocyte complexes from 24-26 day-old mice were isolated from in vivo grown antral follicles post 48 h equine Chronic Gonadotropin stimulation (eCG, Folligon, Intervet, Oss, The Netherlands). Mice were injected with 2.5 IU eCG when they were 22-24 days-old. Intact COCs with at least 2 layers of cumulus cells were put in culture for a period of 18 hours in presence of the following doses of CNP: • Control (No CNP)* • 0.1 nM** • 1 nM • 10 nM • 50 nM** • 100 nM • 1 μM**
# COCs were collected and cultured according to the previous dose experiments in mice, provided in the Example 1.
# Differences in the rate of oocyte meiotic resumption (per meiotic stage) were assessed by ANOVA followed by a Tukey's Multiple Comparison Test, p<0.01. Percentages data were transformed (arcsine) before performing statistical analysis.
# Oocyte meiotic arrest was confirmed by the presence of an intact germinal vesicle (GV) under the inverted microscope, […]
# Pre-ovulatory COCs [4] = assay: Meiotic arrest of pre-ovulatory COCs cultured 18 hours with CNP-22 (Example 1)
# From the text: (§1) For the collection of immature COCs, compact COCs of the first wave of follicular development were collected from small antral follicles of pre-pubertal mice (19-21 days-old), without prior gonadotropin administration. For the collection of pre-ovulatory COCs (controls), compact COCs were collected by puncturing large antral follicles of pre-pubertal female mice (25-27 days-old) following 48 hrs of priming with 2,5IU 2.5 IU equine Chronic Gonadotropin (eCG, Folligon, Intervet, Oss, The Netherlands). Collection medium consisted of Leibovitz L-15, containing 10% Heat-inactivated Foetal Bovine Serum (FBS), 100lU/ml 100 IU/ml penicillin, 100 μg/ml streptomycin (all from Life Technologies, Gent, Belgium) and supplemented with 200 μM 3-Isobutyl-1-methylxanthine (IBMX; Sigma, Schnelldorf, Germany) to prevent meiosis reinitiation during the period of collection and pre culture handling.
# (§2) Basal culture medium for the culture of COCs (Pre-IVM and IVM phases) consisted of α-MEM, 2.5% FBS (both from Life Technologies, Gent, Belgium) and 5 ng/mL Insulin, 5 ug/mt ug/ml. Apo-Transferrin, 5 ng/mL Sodium selenite (All from Sigma, Schnelldorf, Germany).
# (§3) At specified time-points oocytes were mechanically freed from compact or expanded cumulus cells by using a mouth controlled fine bore glass pipette. Meiotic reinitiation was analyzed by assessing the nuclear maturational stage under an inverted microscope equipped with a Hoffman modulation contrast system (Nikon, Tokyo, Japan). Nuclear maturation was scored as GV (Germinal vesicle stage), GVBD (when GV non visible), PB (first polar body observed in perivitelline space) or DEG (when the oocyte was degenerated).
# (§4) Pre-ovulatory COCs, retrieved from gonadotropin-primed mice (aged 26-27 days-old), were placed in culture, for 18 hours, in presence of 0 (Control), 1, 10, 100 nM CNP-22 and in combination with 4 ng/mL EGF.
# Immature COCs = assay: Meiotic arrest of immature COCs from small antral follicles, 48 hours culture
# From the text: as §1, §2
# At specified time-points oocytes were mechanically freed from compact or expanded cumulus cells by using a mouth controlled fine bore glass pipette. Meiotic reinitiation was analyzed by assessing the nuclear maturational stage under an inverted microscope equipped with a Hoffman modulation contrast system (Nikon, Tokyo, Japan). Nuclear maturation was scored as GV (Germinal vesicle stage), GVBD (when GV non visible), PB (first polar body observed in perivitelline space) or DEG (when the oocyte was degenerated). […]
# Immature COCs were retrieved from small antral follicles of female mice aged 19-20 days-old and placed in culture for 48 hours in presence of 25 nM CNP-22 and presence or absence of 10 nM 17-β-estradiol; additionally the effects of the further addition of 2.5 or 5 mlU/mL mIU/ml FSH and/or 50 ng/mL GDF9 were evaluated.
# Pre-ovulatory COCs [5] = assay: EGFR-dependent meiotic resumption of pre-ovulatory COCs in presence of CNP-22 and EGF; conditions: for PB rate: 18 hours
# From the text: as §1, §2
# For experiments involving IVM, recombinant Epidermal growth Factor (r-EGF) (Roche; Mannheim, Germany) and recombinant mouse Epiregulin (EREG) (R&D systems Europe; Oxon, United Kingdom) were used as ovulatory stimuli and the cultures lasted 18 hrs.
# as §3, §4
# Pre-ovulatory COCs, retrieved from gonadotropin-primed mice, were placed in culture in absence (controls) or presence of 25 nM CNP-22 4 ng/mL EGF, and meiotic maturation was assessed at 2, 4 and 6 hours. While meiotic resumption increased from 2 to 6 hours in the control group, few GVBDs were induced in the CNP-22 EGF treated group (≤11%), within the same period of time (FIG. 2A).
# [6] = system: COCs from early antral follicles; assay: Cumulus-oocyte connections (transzonal projections) after capacitation culture with CNP or PDE3 inhibitor (Example 2); conditions: 48 h culture, F-actin staining of zona pellucida, no FSH; listed as CNP
# Description: Basal culture medium for the culture of COCs (Pre-IVM and IVM phases) consisted of α-MEM, 2.5% FBS (both from Life Technologies, Gent, Belgium) and 5 ng/mL Insulin, 5 ug/mL Apo-Transferrin, 5 ng/mL Sodium selenite (All from Sigma, Schnelldorf, Germany). Capacitation medium consisted of basal medium supplemented with either 25 nM CNP or 1 μM Org9935 or 1 μM Cilostamide in combination with 10 nM E2 17-β-estradiol. CNP was obtained from Phoenix Europe (Karlsruhe, Germany), while Cilostamide was obtained from Enzo Life Sciences (Antwerpen, Belgium). Since the aim of the experiment was to make evident potential differences between CNP and PDE3-inhibitors, avoiding potential interference of FSH was crucial, therefore the latter was omitted from capacitation medium. When tested in the presence of FSH, the latter masked the effect of CNP on the connection between the oocyte and surrounding layers of cumulus cells, in having itself a contribution to said connection which is even apparent in the presence of a PDE3-inhibitor (data not shown). […]
# In FIG. 7 average pixel intensity was used as a tool to quantify positive actin staining (TZP) going through zona pellucida. […]
# [7] = 1 nM, 10 nM, 50 nM and 100 nM, 18 hours
substance,measurement,setting,value
"CNP-53: CNP analogue; endogenous form of C-type natriuretic peptide containing a 53-amino acid sequence (DLRVDTKSRAAWARLLQEHPNARKYKGANKKGLSKGCFGLKLDRIGSMSGLGC; ends and bridges not checked; cysteine pairing not given here; UniProt P23582 74-126, looked up)",percentage of oocytes at the GVBD-stage vs control,"Preovulatory COCs [1]; 0.1 nM to 1 μM, 18 hours",No significant differences
same,maintaining oocytes arrested at the GV stage,"Preovulatory COCs [1]; 0.1 nM, 18 hours",suboptimal
same,oocytes under meiotic arrest (GV rate),"Preovulatory COCs [1]; 1 nM CNP-53, 18 hours",66%
same,proportion of oocytes extruding the first polar body vs control without CNP,Preovulatory COCs [1]; [7],significant different
same,oocytes under meiotic arrest (GV rate),"Preovulatory COCs [1]; 10 nM CNP-53, 18 hours",98%
same,oocytes under meiotic arrest (GV rate),"Preovulatory COCs [1]; 50 nM CNP-53, 18 hours",72%
same,oocytes under meiotic arrest (GV rate),"Preovulatory COCs [1]; 100 nM CNP-53, 18 hours",69%
same,maintaining oocytes arrested at the GV stage,"Preovulatory COCs [1]; 1 μM, 18 hours",suboptimal
"C-type natriuretic peptide (GLSKGCFGLKLDRIGSMSGLGC; ends and bridges not checked; cysteine pairing not given here; UniProt P23582 105-126, looked up) [CNP-22, 22 amino acid C-type natriuretic peptide, obtained from Phoenix Europe]","fertilization rate, CNP vs Cilostamide",[2],no difference
same,"blastocyst formed per fertilized egg, CNP vs Cilostamide",[2]; day 5,significantly higher
same,percentage of oocytes at the GVBD-stage vs control,"Preovulatory COCs [3]; 0.1 nM to 1 μM, 18 hours",No significant differences
same,maintaining oocytes arrested at the GV stage,"Preovulatory COCs [3]; 0.1 nM, 18 hours",suboptimal
same,oocytes in meiotic arrest (GV rate),"Preovulatory COCs [3]; 1 nM CNP-22, 18 hours",80%
same,oocytes extruding the first polar body (PB rate),Preovulatory COCs [3]; [7],low proportion or lack
same,oocytes in meiotic arrest (GV rate),"Preovulatory COCs [3]; 10 nM CNP-22, 18 hours",98%
same,oocytes in meiotic arrest (GV rate),"Preovulatory COCs [3]; 50 nM CNP-22, 18 hours",94%
same,oocytes in meiotic arrest (GV rate),"Preovulatory COCs [3]; 100 nM CNP-22, 18 hours",87%
same,maintaining oocytes arrested at the GV stage,"Preovulatory COCs [3]; 1 μM, 18 hours",suboptimal
same,rate of meiotic arrest in preovulatory oocytes,Preovulatory COCs [3]; dose interval 1 nM to 100 nM,above 80%
same,GV rate at the end of culture,"Pre-ovulatory COCs [4]; 1 nM CNP-22, 18 hours",48%
same,GV rate at the end of culture,"Pre-ovulatory COCs [4]; 10 nM CNP-22, 18 hours",93%
same,GV rate at the end of culture,"Pre-ovulatory COCs [4]; 100 nM CNP-22, 18 hours",96%
same,time meiotic arrest is maintained,Pre-ovulatory COCs [4]; pre-ovulatory COCs,at least 24 hours
same,oocytes maintained in meiotic arrest,"Immature COCs; 1 nM, 10 nM, 25 nM, or 50 nM CNP, oocytes from the smallest size of follicles",~100%
same,GV rate,"Immature COCs; 25 nM CNP alone, 48 hours",26%
same,maintenance of meiotic arrest in immature COCs,"Immature COCs; CNP-22 alone, culture up to 48 hours (data not shown)",can maintain meiotic arrest for 24 hours but not for 48 hours
same,PB rate,Pre-ovulatory COCs [5]; 1 nM CNP-22 with 4 ng/mL EGF,92%
same,PB rate,Pre-ovulatory COCs [5]; 10 nM CNP-22 with 4 ng/mL EGF,35%
same,GVBDs induced,"Pre-ovulatory COCs [5]; 25 nM CNP-22, 4 ng/mL EGF, 2 to 6 hours",≤ 11%
same,occurrence of PB oocytes,"Pre-ovulatory COCs [5]; 25 nM CNP-22, 4 ng/mL EGF, 24 hours",93%
same,PB rate,Pre-ovulatory COCs [5]; 100 nM CNP-22 with 4 ng/mL EGF,15%
same,delay of EGFR-induced meiotic resumption vs control,Pre-ovulatory COCs [5]; COCs kept under meiotic arrest by CNP,6 h
same,oocytes under meiotic arrest (GV rate),"Preovulatory COCs [1]; 25 nM CNP-22 positive control, 18 hours",75%
same,transzonal projections / connectivity between oocytes and cumulus cells,[6],full with transzonal projections; also recorded: kept better the connectivity between oocytes and cumulus cells
